According to US20250066371A1, “FLUOROALKOXYALKYLENE-DIHYDROIMIDAZO[5,1-D]TETRAZINONE COMPOUNDS AND RELATED COMPOUNDS AND THEIR USE IN TREATING MEDICAL CONDITIONS” (priority 2023, published 2025):

What was measured:
Experiment in all cases: Cell panel nuclear dye assay
Type in all cases: cell-based
5637 = details: 120 h, Bladder, 5-day incubation
Description: (§1) Cells were grown in RPMI1640, 10% FBS, 2 mM L-alanyl-L-glutamine, 1 mM Na pyruvate, or a special medium. Cells were seeded into 384-well plates and incubated in a humidified atmosphere of 5% CO2 at 37° C. Compound was added the day following cell seeding. At the same time, a time zero untreated cell plate was generated. After a 5-day incubation period, cells were fixed and stained to allow fluorescence imaging of nuclei.
(§2) Compounds were serially diluted in 2-fold steps from the highest test concentration specified, and assayed over 10 concentrations with a maximum assay concentration of 0.1% DMSO. Automated fluorescence microscopy was carried out using a Molecular Devices ImageXpress Micro XL high-content imager, and images were collected with a 4× objective. 16-bit TIFF images were acquired and analyzed with MetaXpress 5.1.0.41 software.
(§3) Cell proliferation was measured by the fluorescence intensity of an incorporated nuclear dye. The output is referred to as the relative cell count, where the measured nuclear intensity is transformed to percent of control (POC) using the following formula: […]
(§4) Cell count IC50 is the test compound concentration at 50% of maximal possible response. EC50 is the test compound concentration at the curve inflection point or half the effective response (parameter C of the fitted curve solution). GI50 is the concentration needed to reduce the observed growth by half (midway between the curve maximum and the time zero value). Activity area is an estimate of the integrated area above the curve. Activity area values range from 0-10, where a value of zero indicates no inhibition of proliferation at all concentrations, and a value of 10 indicates complete inhibition of proliferation at all concentrations. In rare instances, values <0 or >10 may be observed. In these instances, values <0 should be considered as equivalent to 0, whereas values >10 should be considered equivalent to 10.

639-V = details: Homo sapiens, 120 h, Bladder (ureter), 5-day incubation
Description: as §1, §2, §3, §4

647-V = details: Homo sapiens, 120 h, Bladder, 5-day incubation
Description: as §1, §2, §3, §4

A101D = details: Homo sapiens, 120 h, Melanoma, 5-day incubation
Description: as §1, §2, §3, §4

BC-1 = details: Homo sapiens, BC1, 120 h, Lymphoma (B-cell), 5-day incubation
Description: as §1, §2, §3, §4

BCP-1 = details: 120 h, Lymphoma (B-cell), 5-day incubation
Description: as §1, §2, §3, §4

BFTC-905 = details: Homo sapiens, 120 h, Bladder, 5-day incubation
Description: as §1, §2, §3, §4

C32TG = details: 120 h, Melanoma, 5-day incubation
Description: as §1, §2, §3, §4

C32 = details: Homo sapiens, 120 h, Melanoma, 5-day incubation
Description: as §1, §2, §3, §4

CCF-STTG1 = details: Homo sapiens, 120 h, Glioma (astrocytoma), 5-day incubation
Description: as §1, §2, §3, §4

CRO-AP2 = details: Homo sapiens, 120 h, Lymphoma, 5-day incubation
Description: as §1, §2, §3, §4

DB = details: Homo sapiens, 120 h, Lymphoma (B-cell), 5-day incubation
Description: as §1, §2, §3, §4

KHOS-240S = details: 120 h, Osteosarcoma, 5-day incubation
Description: as §1, §2, §3, §4

M059J = details: Homo sapiens, 120 h, Glioma (glioblastoma), 5-day incubation
Description: as §1, §2, §3, §4

MeWo = details: Homo sapiens, 120 h, Melanoma, 5-day incubation
Description: as §1, §2, §3, §4

NCI-H441 = details: Homo sapiens, 120 h, Lung (NSCLC), 5-day incubation
Description: as §1, §2, §3, §4

OE33 = details: Homo sapiens, 120 h, Head & neck (esophageal carcinoma), 5-day incubation
Description: as §1, §2, §3, §4

SH-4 = details: Homo sapiens, 120 h, Melanoma, 5-day incubation
Description: as §1, §2, §3, §4

SJRH30 = details: Homo sapiens, 120 h, Sarcoma (rhabdomyosarcoma), 5-day incubation
Description: as §1, §2, §3, §4

SK-N-AS = details: Homo sapiens, 120 h, Neuroblastoma, 5-day incubation
Description: as §1, §2, §3, §4

SNB-19 = details: Homo sapiens, 120 h, Glioma (astrocytoma), 5-day incubation
Description: as §1, §2, §3, §4

SW48 = details: Homo sapiens, 120 h, Colon, 5-day incubation
Description: as §1, §2, §3, §4

SaOS2 = details: Homo sapiens, SAOS-2, 120 h, Osteosarcoma, 5-day incubation
Description: as §1, §2, §3, §4

T24 = details: Homo sapiens, T-24, 120 h, Bladder, 5-day incubation
Description: as §1, §2, §3, §4

U-87 MG = details: Homo sapiens, 120 h, Glioma (glioblastoma), 5-day incubation
Description: as §1, §2, §3, §4

WM-266-4 = details: Homo sapiens, 120 h, Melanoma, 5-day incubation
Description: as §1, §2, §3, §4

NC(=O)c1ncn2c(=O)n(CCOC(F)(F)F)nnc12 [Compound I-1, 4-Oxo-3-(2-(trifluoromethoxy)ethyl)-3,4-dihydroimidazo[5,1-d][1,2,3,5]tetrazine-8-carboxamide]
EC50 5637: 30 to 70 µM
IC50 5637: 30 to 70 µM
EC50 (639-V): ≤ 30 µM
IC50 (639-V): ≤ 30 µM
EC50 (647-V): 30 to 70 µM
IC50 (647-V): 30 to 70 µM
EC50 (A101D): ≤ 30 µM
IC50 (A101D): ≤ 30 µM
EC50 (BC-1): ≤ 30 µM
IC50 (BC-1): ≤ 30 µM
EC50 (BCP-1): ≤ 30 µM
IC50 (BCP-1): ≤ 30 µM
EC50 (BFTC-905): 30 to 70 µM
IC50 (BFTC-905): 30 to 70 µM
EC50 (C32TG): ≤ 30 µM
IC50 (C32TG): ≤ 30 µM
EC50 (C32): 30 to 70 µM
IC50 (C32): 70 to 150 µM
EC50 (CCF-STTG1): ≤ 30 µM
IC50 (CCF-STTG1): 30 to 70 µM
EC50 (CRO-AP2): ≤ 30 µM
IC50 (CRO-AP2): ≤ 30 µM
EC50 (DB): ≤ 30 µM
IC50 (DB): 30 to 70 µM
EC50 (KHOS-240S): > 150 µM
IC50 (KHOS-240S): > 150 µM
EC50 (M059J): 30 to 70 µM
IC50 (M059J): 30 to 70 µM
EC50 (MeWo): > 150 µM
IC50 (MeWo): > 150 µM
EC50 (NCI-H441): > 150 µM
IC50 (NCI-H441): > 150 µM
EC50 (OE33): 30 to 70 µM
IC50 (OE33): 30 to 70 µM
EC50 (SH-4): 30 to 70 µM
IC50 (SH-4): 30 to 70 µM
EC50 (SJRH30): ≤ 30 µM
IC50 (SJRH30): ≤ 30 µM
EC50 (SK-N-AS): > 150 µM
IC50 (SK-N-AS): > 150 µM
EC50 (SNB-19): 30 to 70 µM
IC50 (SNB-19): 30 to 70 µM
EC50 (SW48): ≤ 30 µM
IC50 (SW48): ≤ 30 µM
EC50 (SaOS2): ≤ 30 µM
IC50 (SaOS2): ≤ 30 µM
EC50 (T24): 30 to 70 µM
IC50 (T24): > 150 µM
EC50 (U-87 MG): 30 to 70 µM
IC50 (U-87 MG): 70 to 150 µM
EC50 (WM-266-4): 30 to 70 µM
IC50 (WM-266-4): 30 to 70 µM
